Results reported in patent US20260108533A1, “COMPOSITIONS AND METHODS FOR THE TREATMENT OF MEIBOMIAN GLAND DYSFUNCTION” (Azura Ophthalmics Ltd., priority 2019, published 2026).

Tested on: stratum corneum (SC)
Experiment: Stratum corneum (SC) tape stripping, keratolytic efficacy
Type: in vivo
Conditions: for increase of SC removal: for 3-6 hours
Source text: Keratolytic efficacy of an agent is optionally assessed by examining stratum corneum (SC) tape strippings to measure the total SC protein amount removed and on the tape. The amount of skin mass on the tape is directly proportional to the amount of keratolysis. Salicylic acid is a keratolytic, while retinoic acid is known mostly for its comedolytic properties, and benzoyl peroxide is known mostly for its anti-microbial mechanism. Here, all three were examined for relative keratolytic efficacy.

O=C(OOC(=O)c1ccccc1)c1ccccc1 [benzoyl peroxide]
effectiveness in interfering with SC cohesion (After 3 hours): significantly more effective in interfering with SC cohesion than either salicylic acid or retinoic acid | increase of SC removal: about 10% | keratolytic effects (tape stripping) (overall comparison): comparable to that of salicylic acid and retinoic acid

O=C(O)c1ccccc1O [salicylic acid]
increase of SC removal: about 10%

CC1=C(/C=C/C(C)=C/C=C/C(C)=C/C(=O)O)C(C)(C)CCC1 [retinoic acid]
increase of SC removal: approximately 35%
